Measurements: patent US9562899B2, “Method of detecting OXA-048 carbapenemase producing bacteria” (BIOMÉRIEUX, priority 2012, dated 2017)

Columns and labels:
[1] = test system: KPC strains; assay: Temocillin MIC with EDTA in the medium (Example 2); format: cell-based, Enterobacteriaceae; conditions: Ex 2, MIC in mg/l
Excerpt: (§1) Optimization of the Detection Specificity by Introducing Specific Inhibitors Inhibition of Class B Strains (NDM, VIM, IMP) by Adding EDTA
(§2) Identical to that used to determine the temocillin MICs by agar dilution (example 1).
(§3) For each temocillin concentration, the following concentrations of active EDTA will be tested in the form of disodium EDTA: 0, 1.77, 2.12, 2.47 and 2.83 mmol/l.
(§4) Method: identical to the method used in example 1.

[2] = test system: BLSE strains; assay: Temocillin MIC with EDTA in the medium (Example 2); format: cell-based, Enterobacteriaceae; conditions: Ex 2, MIC in mg/l
Excerpt: as §1, §2, §3, §4

[3] = test system: IMP strains; assay: Temocillin MIC with EDTA in the medium (Example 2); format: cell-based, Enterobacteriaceae; conditions: Ex 2, MIC in mg/l
Excerpt: as §1, §2, §3, §4

[4] = test system: OXA-48 strains; conditions: Livermore et al., cited from earlier work

SMILES: CO[C@@]1(NC(=O)C(C(=O)O)c2ccsc2)C(=O)N2[C@@H](C(=O)O)C(C)(C)S[C@@H]21 (stereo partly shown) [temocillin]
- No. of KPC strains with MIC 200 ([1]; 0 mmol/l of EDTA): 0
- No. of KPC strains with MIC 300 ([1]; 0 mmol/l of EDTA): 0
- No. of KPC strains with MIC >300 ([1]; 0 mmol/l of EDTA): 1
- No. of KPC strains with MIC ≦50 ([1]; 0 mmol/l of EDTA): 18
- No. of KPC strains with MIC 150 ([1]; 1.77 mmol/l of active EDTA): 0
- No. of KPC strains with MIC 200 ([1]; 1.77 mmol/l of active EDTA): 0
- No. of KPC strains with MIC 300 ([1]; 1.77 mmol/l of active EDTA): 0
- No. of KPC strains with MIC >300 ([1]; 1.77 mmol/l of active EDTA): 1
- No. of KPC strains with MIC ≦50 ([1]; 1.77 mmol/l of active EDTA): 18
- No. of KPC strains with MIC 150 ([1]; 2.12 mmol/l of active EDTA): 0
- No. of KPC strains with MIC 200 ([1]; 2.12 mmol/l of active EDTA): 0
- No. of KPC strains with MIC 300 ([1]; 2.12 mmol/l of active EDTA): 0
- No. of KPC strains with MIC >300 ([1]; 2.12 mmol/l of active EDTA): 1
- No. of KPC strains with MIC ≦50 ([1]; 2.12 mmol/l of active EDTA): 18
- No. of KPC strains with MIC 150 ([1]; 2.47 mmol/l of active EDTA): 0
- No. of KPC strains with MIC 200 ([1]; 2.47 mmol/l of active EDTA): 0
- No. of KPC strains with MIC 300 ([1]; 2.47 mmol/l of active EDTA): 0
- No. of KPC strains with MIC >300 ([1]; 2.47 mmol/l of active EDTA): 1
- No. of KPC strains with MIC ≦50 ([1]; 2.47 mmol/l of active EDTA): 18
- No. of KPC strains with MIC 150 ([1]; 2.83 mmol/l of active EDTA): 0
- No. of KPC strains with MIC 200 ([1]; 2.83 mmol/l of active EDTA): 0
- No. of KPC strains with MIC 300 ([1]; 2.83 mmol/l of active EDTA): 0
- No. of KPC strains with MIC >300 ([1]; 2.83 mmol/l of active EDTA): 0
- No. of KPC strains with MIC ≦50 ([1]; 2.83 mmol/l of active EDTA): 19
- No. of BLSE strains with MIC 150 ([2]; 0 mmol/l of EDTA): 0
- No. of BLSE strains with MIC 200 ([2]; 0 mmol/l of EDTA): 0
- No. of BLSE strains with MIC 300 ([2]; 0 mmol/l of EDTA): 0
- No. of BLSE strains with MIC >300 ([2]; 0 mmol/l of EDTA): 0
- No. of BLSE strains with MIC ≦50 ([2]; 0 mmol/l of EDTA): 10
- No. of BLSE strains with MIC 150 ([2]; 1.77 mmol/l of active EDTA): 0
- No. of BLSE strains with MIC 200 ([2]; 1.77 mmol/l of active EDTA): 0
- No. of BLSE strains with MIC 300 ([2]; 1.77 mmol/l of active EDTA): 0
- No. of BLSE strains with MIC >300 ([2]; 1.77 mmol/l of active EDTA): 0
- No. of BLSE strains with MIC ≦50 ([2]; 1.77 mmol/l of active EDTA): 10
- No. of BLSE strains with MIC 150 ([2]; 2.12 mmol/l of active EDTA): 1
- No. of BLSE strains with MIC 200 ([2]; 2.12 mmol/l of active EDTA): 0
- No. of BLSE strains with MIC 300 ([2]; 2.12 mmol/l of active EDTA): 0
- No. of BLSE strains with MIC >300 ([2]; 2.12 mmol/l of active EDTA): 0
- No. of BLSE strains with MIC ≦50 ([2]; 2.12 mmol/l of active EDTA): 9
- No. of BLSE strains with MIC 150 ([2]; 2.47 mmol/l of active EDTA): 0
- No. of BLSE strains with MIC 200 ([2]; 2.47 mmol/l of active EDTA): 0
- No. of BLSE strains with MIC 300 ([2]; 2.47 mmol/l of active EDTA): 0
- No. of BLSE strains with MIC >300 ([2]; 2.47 mmol/l of active EDTA): 0
- No. of BLSE strains with MIC ≦50 ([2]; 2.47 mmol/l of active EDTA): 10
- No. of BLSE strains with MIC 150 ([2]; 2.83 mmol/l of active EDTA): 0
- No. of BLSE strains with MIC 200 ([2]; 2.83 mmol/l of active EDTA): 0
- No. of BLSE strains with MIC 300 ([2]; 2.83 mmol/l of active EDTA): 0
- No. of BLSE strains with MIC >300 ([2]; 2.83 mmol/l of active EDTA): 0
- No. of BLSE strains with MIC ≦50 ([2]; 2.83 mmol/l of active EDTA): 10
- No. of IMP strains with MIC 150 ([3]; 0 mmol/l of EDTA): 0
- No. of IMP strains with MIC 200 ([3]; 0 mmol/l of EDTA): 0
- No. of IMP strains with MIC 300 ([3]; 0 mmol/l of EDTA): 0
- No. of IMP strains with MIC >300 ([3]; 0 mmol/l of EDTA): 1
- No. of IMP strains with MIC ≦50 ([3]; 0 mmol/l of EDTA): 12
- No. of IMP strains with MIC 150 ([3]; 1.77 mmol/l of active EDTA): 0
- No. of IMP strains with MIC 200 ([3]; 1.77 mmol/l of active EDTA): 0
- No. of IMP strains with MIC 300 ([3]; 1.77 mmol/l of active EDTA): 0
- No. of IMP strains with MIC >300 ([3]; 1.77 mmol/l of active EDTA): 1
- No. of IMP strains with MIC ≦50 ([3]; 1.77 mmol/l of active EDTA): 12
- No. of IMP strains with MIC 150 ([3]; 2.12 mmol/l of active EDTA): 0
- No. of IMP strains with MIC 200 ([3]; 2.12 mmol/l of active EDTA): 0
- No. of IMP strains with MIC 300 ([3]; 2.12 mmol/l of active EDTA): 0
- No. of IMP strains with MIC >300 ([3]; 2.12 mmol/l of active EDTA): 1
- No. of IMP strains with MIC ≦50 ([3]; 2.12 mmol/l of active EDTA): 12
- No. of IMP strains with MIC 150 ([3]; 2.47 mmol/l of active EDTA): 0
- No. of IMP strains with MIC 200 ([3]; 2.47 mmol/l of active EDTA): 0
- No. of IMP strains with MIC 300 ([3]; 2.47 mmol/l of active EDTA): 0
- No. of IMP strains with MIC >300 ([3]; 2.47 mmol/l of active EDTA): 1
- No. of IMP strains with MIC ≦50 ([3]; 2.47 mmol/l of active EDTA): 12
- No. of IMP strains with MIC 150 ([3]; 2.83 mmol/l of active EDTA): 0
- No. of IMP strains with MIC 200 ([3]; 2.83 mmol/l of active EDTA): 0
- No. of IMP strains with MIC 300 ([3]; 2.83 mmol/l of active EDTA): 0
- No. of IMP strains with MIC >300 ([3]; 2.83 mmol/l of active EDTA): 1
- No. of IMP strains with MIC ≦50 ([3]; 2.83 mmol/l of active EDTA): 12
- strains resistant to temocillin ([4]; OXA-48 strains): 18/19
- minimum inhibitory concentration (MIC) ([4]; resistant strains, growth at final concentration tested of 128 mg/l): ≥ 256 µg/mL
